22 compounds from US12281079B2, “Quinoline derivatives, processes for their preparation and uses thereof for the treatment of cancer” (Lead Discovery Center GmbH, priority 2019, dated 2025) can be followed below.

Each structure is given as a SMILES string.

Assay [1] deals with mitochondrial transcription (7S RNA) in HeLa cells. Nature of the assay: Quantitative real time-PCR assay of inhibition of mitochondrial transcription (7S RNA) in HeLa cells. It counts as cell-based. Particulars: Homo sapiens, 4 h compound incubation, according to Example 5, read-out: cellular qPCR assay. The method in brief:
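HeLa cells were exposed to compound dilution series or DMSO for 4 h, then RNA was extracted, normalized and reverse-transcribed. TaqMan qRT-PCR measured short-lived 7S RNA, with POLRMT as nuclear-transcription readout and TBP as housekeeping gene. Biological triplicates were analyzed by ΔΔCt and reported as Rq % (2−ΔΔCt).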

In assay [2] the target is mitochondrial RNA polymerase (POLRMT) (Mus musculus, UniProt Q8BKF1). Nature of the assay: Homogeneous TR-FRET assay for mitochondrial transcription activity. It counts as biochemical. The settings on record: homogeneous TR-FRET assay according to Example 4. The method in brief: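 Read-out is TR-FRET (ex 340, em 665 nm) from two adjacent labelled DNA probes annealing to the 407 bp transcript after EDTA/700 mM NaCl stop. Reaction: murine POLRMT, TFAM, TFB2M and LSP plasmid template, compound 10 μM or serial dilution, 10 min rt preincubation, 500 μM each nucleotide, 2 h rt.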
mitochondrial RNA polymerase (POLRMT), sequence (Q8BKF1 42-1207): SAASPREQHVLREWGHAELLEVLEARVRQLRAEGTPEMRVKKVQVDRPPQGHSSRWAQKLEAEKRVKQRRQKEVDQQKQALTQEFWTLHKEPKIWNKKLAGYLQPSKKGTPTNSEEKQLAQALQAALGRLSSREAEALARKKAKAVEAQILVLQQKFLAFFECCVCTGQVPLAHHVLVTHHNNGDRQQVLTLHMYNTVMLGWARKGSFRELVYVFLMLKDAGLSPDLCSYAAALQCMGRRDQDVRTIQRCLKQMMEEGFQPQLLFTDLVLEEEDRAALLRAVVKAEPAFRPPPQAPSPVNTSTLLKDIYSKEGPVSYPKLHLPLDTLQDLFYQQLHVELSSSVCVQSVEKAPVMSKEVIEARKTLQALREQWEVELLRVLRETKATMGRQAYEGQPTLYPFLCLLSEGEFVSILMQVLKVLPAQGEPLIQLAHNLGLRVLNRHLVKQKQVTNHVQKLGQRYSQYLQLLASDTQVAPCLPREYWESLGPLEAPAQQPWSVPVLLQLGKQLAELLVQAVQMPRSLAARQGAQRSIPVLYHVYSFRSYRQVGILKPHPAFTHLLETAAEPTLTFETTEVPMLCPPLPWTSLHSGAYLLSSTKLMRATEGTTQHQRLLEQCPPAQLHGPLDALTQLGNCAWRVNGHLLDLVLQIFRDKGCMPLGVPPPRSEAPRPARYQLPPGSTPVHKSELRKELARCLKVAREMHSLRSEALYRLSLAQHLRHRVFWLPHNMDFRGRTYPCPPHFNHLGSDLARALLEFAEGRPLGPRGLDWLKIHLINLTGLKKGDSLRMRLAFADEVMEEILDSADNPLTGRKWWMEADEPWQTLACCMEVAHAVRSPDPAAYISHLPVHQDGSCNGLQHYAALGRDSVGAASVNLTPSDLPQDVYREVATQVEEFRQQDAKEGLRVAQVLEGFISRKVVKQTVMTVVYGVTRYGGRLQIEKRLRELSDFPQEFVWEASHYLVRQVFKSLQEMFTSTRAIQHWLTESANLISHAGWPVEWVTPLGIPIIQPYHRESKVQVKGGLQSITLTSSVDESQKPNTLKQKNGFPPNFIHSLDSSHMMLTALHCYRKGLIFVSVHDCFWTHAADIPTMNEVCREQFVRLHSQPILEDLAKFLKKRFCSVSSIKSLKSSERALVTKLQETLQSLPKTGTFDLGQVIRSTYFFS

As for `CCOC(=O)[C@@H](C)Oc1ccc2c(-c3ccccc3Cl)ccnc2c1` [Compound 50, ethyl (2R)-2-[[4-(2-chlorophenyl)-7-quinolyl]oxy]propanoate], the IC50 in assay [1] was in the range of 10 to 50 nM; in assay [2] it was 100 to 1000 nM.

Turning to `C[C@@H](Oc1ccc2c(-c3ccc(F)cc3Cl)ccnc2c1)C(=O)N1CCC[C@@H](CC(=O)O)C1` [Compound 22, 2-[(3S)-1-[(2R)-2-[[4-(2-chloro-4-fluoro-phenyl)-7-quinolyl]oxy]propanoyl]-3-piperidyl]acetic acid], the results for the IC50 in assay [1] and in assay [2] were 50 to 500 nM and 20 to 100 nM, respectively.

As to `Cc1cc(F)cc(C)c1-c1ccnc2cc(O[C@H](C)C(=O)N3CCC4(CC3)COC4)ccc12` [Compound 179, (2R)-2-[[4-(4-fluoro-2,6-dimethyl-phenyl)-7-quinolyl]oxy]-1-(2-oxa-7-azaspiro[3.5]nonan-7-yl)propan-1-one], the IC50 in assay [1] was less than 10 nM; in assay [2], less than 20 nM.

`Cc1cc(F)cc(C)c1-c1ccnc2cc(O[C@H](C)C(=O)N3CCOCC3)ccc12` [Compound 178, (2R)-2-[[4-(4-fluoro-2,6-dimethyl-phenyl)-7-quinolyl]oxy]-1-morpholino-propan-1-one]: the results for the IC50 in assay [1] and in assay [2] were 10 to 50 nM and less than 20 nM, respectively.

With `C[C@@H](Oc1ccc2c(-c3ccccc3Cl)ccnc2c1)C(=O)N1CCC[C@H](C(=O)O)C1` [Compound 9, (3S)-1-[(2R)-2-[[4-(2-chlorophenyl)-7-quinolyl]oxy]propanoyl]piperidine-3-carboxylic acid], the IC50 in assay [1] was less than 10 nM; in assay [2] it was less than 20 nM.

With `C[C@@H](Oc1ccc2c(-c3ccc(F)cc3Cl)ccnc2c1)C(=O)N1CCC[C@@](C)(C(=O)O)C1` [Compound 198, (3R)-1-[(2R)-2-[[4-(2-chloro-4-fluoro-phenyl)-7-quinolyl]oxy]propanoyl]-3-methyl-piperidine-3-carboxylic acid], the figures for the IC50 in assay [1] and in assay [2] were less than 10 nM and 20 to 100 nM, respectively.

As for `C[C@@H]1CCCCN1C(=O)[C@@H](C)Oc1ccc2c(-c3c(Cl)cc(F)cc3Cl)ccnc2c1` [Compound 204, (2R)-2-[[4-(2,6-dichloro-4-fluoro-phenyl)-7-quinolyl]oxy]-1-[(2R)-2-methyl-1-piperidyl]propan-1-one], the IC50 in assay [1] is 10 to 50 nM; in assay [2], 100 to 1000 nM.

In the case of `C[C@@H](Oc1ccc2c(-c3ccc(F)cc3Cl)cc(Cl)nc2c1)C(=O)N1CCC[C@H](C(=O)O)C1` [Compound 64, (3S)-1-[(2R)-2-[[2-chloro-4-(2-chloro-4-fluoro-phenyl)-7-quinolyl]oxy]propanoyl]piperidine-3-carboxylic acid], the IC50 in assay [1] lay in the range of 50 to 500 nM; in assay [2], 100 to 1000 nM.

For the compound `C[C@@H](Oc1ccc2c(-c3ccccc3Cl)cc(Cl)nc2c1)C(=O)N1CCN(C(=O)C2CC2)CC1` [Compound 70, (2R)-2-[[2-chloro-4-(2-chlorophenyl)-7-quinolyl]oxy]-1-[4-(cyclopropanecarbonyl)piperazin-1-yl]propan-1-one], the values for the IC50 in assay [1] and in assay [2] were 500 to 5000 nM and 100 to 1000 nM, respectively.

With `C[C@@H](Oc1ccc2c(-c3ccc(F)cc3Cl)ccnc2c1)C(=O)N1CCC[C@H](S(N)(=O)=O)C1` [Compound 116, (3S)-1-[(2R)-2-[[4-(2-chloro-4-fluoro-phenyl)-7-quinolyl]oxy]propanoyl]piperidine-3-sulfonamide], the IC50 in assay [1] was less than 10 nM; in assay [2], 100 to 1000 nM.

With `C[C@@H](Oc1ccc2c(-c3c(Cl)cc(F)cc3Cl)ccnc2c1)C(=O)N1CCC[C@](C)(C(=O)O)C1` [Compound 173, (3S)-1-[(2R)-2-[[4-(2,6-dichloro-4-fluoro-phenyl)-7-quinolyl]oxy]propanoyl]-3-methyl-piperidine-3-carboxylic acid], the figures for the IC50 in assay [1] and in assay [2] were less than 10 nM and less than 20 nM, respectively.

For `Cc1cc(F)cc(C)c1-c1ccnc2cc(O[C@H](C)C(=O)N3CCC4(CCNC4=O)CC3)ccc12` [Compound 181, 8-[(2R)-2-[[4-(4-fluoro-2,6-dimethyl-phenyl)-7-quinolyl]oxy]propanoyl]-2,8-diazaspiro[4.5]decan-1-one], the values for the IC50 in assay [1] and in assay [2] were less than 10 nM and less than 20 nM, respectively.

For `C[C@@H](Oc1ccc2c(-c3ccc(F)cc3Cl)ccnc2c1)C(=O)N1CC(C)(C)NC(C)(C)C1` [Compound 215, (2R)-2-[[4-(2-chloro-4-fluoro-phenyl)-7-quinolyl]oxy]-1-(3,3,5,5-tetramethylpiperazin-1-yl)propan-1-one], the IC50 in assay [1] was 50 to 500 nM; in assay [2], 100 to 1000 nM.

As to `O=C(O)[C@H]1CCCN(C(=O)COc2ccc3c(-c4ccccc4Cl)ccnc3c2)C1` [Compound 46, (3S)-1-[2-[[4-(2-chlorophenyl)-7-quinolyl]oxy]acetyl]piperidine-3-carboxylic acid], the IC50 in assay [1] was 50 to 500 nM; in assay [2], 100 to 1000 nM.

As to `C[C@@H](Oc1ccc2c(-c3ccccc3)ccnc2c1)C(=O)N1CCC[C@H](C(=O)O)C1` [Compound 66, (3S)-1-[(2R)-2-[(4-phenyl-7-quinolyl)oxy]propanoyl]piperidine-3-carboxylic acid], the IC50 in assay [1] lay within 10 to 50 nM; in assay [2] it was 100 to 1000 nM.

`C[C@@H](Oc1ccc2c(-c3ccccc3Cl)cc(Cl)nc2c1)C(=O)N1CCC[C@H](C(N)=O)C1` [Compound 76, (3S)-1-[(2R)-2-[[2-chloro-4-(2-chlorophenyl)-7-quinolyl]oxy]propanoyl]piperidine-3-carboxamide]: the IC50 in assay [1] is 10 to 50 nM; in assay [2], 100 to 1000 nM.

Consider `C[C@@H](Oc1ccc2c(-c3ccccc3Cl)ccnc2c1)C(=O)OC(C)(C)C` [Compound 29, tert-butyl (2R)-2-[[4-(2-chlorophenyl)-7-quinolyl]oxy]propanoate], for which the IC50 in assay [1] was less than 10 nM; in assay [2] it was 100 to 1000 nM.

Take `Cc1cc(-c2ccc(F)cc2Cl)c2ccc(O[C@H](C)C(=O)N3CCC[C@H](CC(=O)O)C3)cc2n1` [Compound 101, 2-[(3R)-1-[(2R)-2-[[4-(2-chloro-4-fluoro-phenyl)-2-methyl-7-quinolyl]oxy]propanoyl]-3-piperidyl]acetic acid]: the IC50 lay within 500 to 5000 nM in assay [1] and 1000 to 10000 nM in assay [2].

In the case of `C[C@@H](Oc1ccc2c(-c3ccc(F)cc3Cl)ccnc2c1)C(=O)N1CCC2(COC2)C1` [Compound 213, (2R)-2-[[4-(2-chloro-4-fluoro-phenyl)-7-quinolyl]oxy]-1-(2-oxa-7-azaspiro[3.4]octan-7-yl)propan-1-one], the IC50 in assay [1] lay within 50 to 500 nM; in assay [2], 100 to 1000 nM.

With `C[C@@H](Oc1ccc2c(-c3ccccc3Cl)ccnc2c1)C(=O)N1CCC[C@H](CC(=O)O)C1` [Compound 16, 2-[(3R)-1-[(2R)-2-[[4-(2-chlorophenyl)-7-quinolyl]oxy]propanoyl]-3-piperidyl]acetic acid], the IC50 was 50 to 500 nM in assay [1] and 20 to 100 nM in assay [2].

`C[C@@H](Oc1ccc2c(-c3ccc(F)cc3Cl)ccnc2c1)C(=O)N1CCCC(CS(N)(=O)=O)C1` (mixture of isomers) [Compound 123, [1-[rac-(2R)-2-[[4-(2-chloro-4-fluoro-phenyl)-7-quinolyl]oxy]propanoyl]-3-piperidyl]methanesulfonamide]: the figures for the IC50 in assay [1] and in assay [2] were 50 to 500 nM and 100 to 1000 nM, respectively.

On to `Cc1ccccc1-c1cc(Cl)nc2cc(O[C@H](C)C(=O)N3CCC[C@H](CC(=O)O)C3)ccc12` [Compound 21, 2-[(3R)-1-[(2R)-2-[[2-chloro-4-(o-tolyl)-7-quinolyl]oxy]propanoyl]-3-piperidyl]acetic acid], for which the IC50 in assay [1] was 500 to 5000 nM; in assay [2], 20 to 100 nM.
